Laboratory results: ChEMBL document CHEMBL5346961, “Discovery and Evaluation of 3-Quinoxalin Urea Derivatives as Potent, Selective, and Orally Available ATM Inhibitors Combined with Chemotherapy for the Treatment of Cancer via Goal-Oriented Molecule Generation and Virtual Screening” (J Med Chem, 2023)
Calls of active or inactive are those of the source. The calls are words filed in the database; no cut-off is given here.

Legend:
HCT-116 [1] = experiment: Induction of apoptosis in human HCT-116 cells assessed as early apoptotic cells at 4 uM measured after 2 days by AnnexinV-FITC/PI staining based analysis (reference value: 14.4%); type: functional; settings: time 2 day
HCT-116 [2] = experiment: Induction of cell cycle arrest in human HCT-116 cells at 1 to 4 uM measured after 48 hrs by propidium iodide staining based flow cytometry analysis; type: functional; settings: dose 1-4 µM
HCT-116 [3] = experiment: Induction of cell cycle arrest in human HCT-116 cells assessed as increase in accumulation of cells at G2/M phase at 1 to 4 uM measured after 48 hrs in presence of irinotecan by propidium iodide staining based flow cytometry analysis; type: functional; settings: dose 1-4 µM
MCF7 [4] = experiment: Synergistic antiproliferative activity against human MCF7 cells assessed as fold increase in etoposide IC50 at 200 nM measured after 6 days by MTT assay; type: functional; settings: time 6 day
HCT-116 [5] = experiment: Induction of apoptosis in human HCT-116 cells assessed as necrotic cells at 4 uM measured after 2 days in presence of irinotecan by AnnexinV-FITC/PI staining based analysis (reference value: 0.64%); type: functional; settings: time 2 day
[6] = Volume of distribution at steady state in Balb/C mouse at 10 mg/kg,iv measured upto 48 hrs by LC-MS/MS analysis; type: ADME, organism-based; settings: in vivo, read-out: Vdss
[7] = Cmax in Balb/C mouse at 10 mg/kg,iv measured upto 48 hrs by LC-MS/MS analysis; type: ADME, organism-based; set-up: time < 48 hrs, dose 10 mg/kg, route iv; settings: in vivo
MCF7 [8] = experiment: Synergistic antiproliferative activity against human MCF7 cells assessed as fold increase in irinotecan IC50 at 200 nM measured after 6 days by MTT assay; type: functional; settings: time 6 day
HCT-116 [9] = experiment: Inhibition of colony formation in human HCT-116 cells assessed as assessed as fold change in IC50 in presence of ionizing radiation; type: functional
[10] = Cmax in Balb/C mouse at 10 mg/kg,po measured upto 48 hrs by LC-MS/MS analysis; type: ADME, organism-based; set-up: dose 10 mg/kg, time < 48 hrs, route po; settings: in vivo
HCT-116 [11] = experiment: Induction of apoptosis in human HCT-116 cells assessed as viable cells at 1 uM measured after 2 days by AnnexinV-FITC/PI staining based analysis (reference value: 72.8%); type: functional; settings: HCT-116, 48 h, time 2 day, read-out: Activity
HCT-116 [12] = experiment: Inhibition of colony formation in human HCT-116 cells preincubated for 1 hr followed by exposure to 2 Gy gamma irradiation and measured after 1 week by crystal violet staining based […] assay; type: functional, cell-based; settings: HCT-116, light or radiation study
[13] = Metabolic stability in human liver microsomes assessed as clearance at 1 uM in presence of NADPH-regenerating system by LC-MS/MS analysis; type: ADME, Microsome
HCT-116 [14] = experiment: Induction of apoptosis in human HCT-116 cells assessed as necrotic cells at 4 uM measured after 2 days by AnnexinV-FITC/PI staining based analysis (reference value: 0.64%); type: functional; settings: time 2 day
HCT-116 [15] = experiment: Induction of DNA damage in human HCT-116 cells assessed as decrease in gammaH2AX fluorescence intensity measured after 6 hrs in presence of irinotecan by fluorescence microscopic analysis; type: functional, cell-based; settings: dose 0.5-2 µM
MCF7 [16] = experiment: Synergistic antiproliferative activity against human MCF7 cells assessed as combination index at […] measured after 6 days in presence irinotecan by MTT assay; type: functional; settings: dose lower 100 µM; time 6 day
[17] = biological target: Serine-protein kinase ATM (Homo sapiens, UniProt Q13315); experiment: Inhibition of ATM (unknown origin) preincubated with compound for 30 mins followed by substrate addition and measured after 2 hrs by HTRF method
Chain of Serine-protein kinase ATM (Q13315 whole entry): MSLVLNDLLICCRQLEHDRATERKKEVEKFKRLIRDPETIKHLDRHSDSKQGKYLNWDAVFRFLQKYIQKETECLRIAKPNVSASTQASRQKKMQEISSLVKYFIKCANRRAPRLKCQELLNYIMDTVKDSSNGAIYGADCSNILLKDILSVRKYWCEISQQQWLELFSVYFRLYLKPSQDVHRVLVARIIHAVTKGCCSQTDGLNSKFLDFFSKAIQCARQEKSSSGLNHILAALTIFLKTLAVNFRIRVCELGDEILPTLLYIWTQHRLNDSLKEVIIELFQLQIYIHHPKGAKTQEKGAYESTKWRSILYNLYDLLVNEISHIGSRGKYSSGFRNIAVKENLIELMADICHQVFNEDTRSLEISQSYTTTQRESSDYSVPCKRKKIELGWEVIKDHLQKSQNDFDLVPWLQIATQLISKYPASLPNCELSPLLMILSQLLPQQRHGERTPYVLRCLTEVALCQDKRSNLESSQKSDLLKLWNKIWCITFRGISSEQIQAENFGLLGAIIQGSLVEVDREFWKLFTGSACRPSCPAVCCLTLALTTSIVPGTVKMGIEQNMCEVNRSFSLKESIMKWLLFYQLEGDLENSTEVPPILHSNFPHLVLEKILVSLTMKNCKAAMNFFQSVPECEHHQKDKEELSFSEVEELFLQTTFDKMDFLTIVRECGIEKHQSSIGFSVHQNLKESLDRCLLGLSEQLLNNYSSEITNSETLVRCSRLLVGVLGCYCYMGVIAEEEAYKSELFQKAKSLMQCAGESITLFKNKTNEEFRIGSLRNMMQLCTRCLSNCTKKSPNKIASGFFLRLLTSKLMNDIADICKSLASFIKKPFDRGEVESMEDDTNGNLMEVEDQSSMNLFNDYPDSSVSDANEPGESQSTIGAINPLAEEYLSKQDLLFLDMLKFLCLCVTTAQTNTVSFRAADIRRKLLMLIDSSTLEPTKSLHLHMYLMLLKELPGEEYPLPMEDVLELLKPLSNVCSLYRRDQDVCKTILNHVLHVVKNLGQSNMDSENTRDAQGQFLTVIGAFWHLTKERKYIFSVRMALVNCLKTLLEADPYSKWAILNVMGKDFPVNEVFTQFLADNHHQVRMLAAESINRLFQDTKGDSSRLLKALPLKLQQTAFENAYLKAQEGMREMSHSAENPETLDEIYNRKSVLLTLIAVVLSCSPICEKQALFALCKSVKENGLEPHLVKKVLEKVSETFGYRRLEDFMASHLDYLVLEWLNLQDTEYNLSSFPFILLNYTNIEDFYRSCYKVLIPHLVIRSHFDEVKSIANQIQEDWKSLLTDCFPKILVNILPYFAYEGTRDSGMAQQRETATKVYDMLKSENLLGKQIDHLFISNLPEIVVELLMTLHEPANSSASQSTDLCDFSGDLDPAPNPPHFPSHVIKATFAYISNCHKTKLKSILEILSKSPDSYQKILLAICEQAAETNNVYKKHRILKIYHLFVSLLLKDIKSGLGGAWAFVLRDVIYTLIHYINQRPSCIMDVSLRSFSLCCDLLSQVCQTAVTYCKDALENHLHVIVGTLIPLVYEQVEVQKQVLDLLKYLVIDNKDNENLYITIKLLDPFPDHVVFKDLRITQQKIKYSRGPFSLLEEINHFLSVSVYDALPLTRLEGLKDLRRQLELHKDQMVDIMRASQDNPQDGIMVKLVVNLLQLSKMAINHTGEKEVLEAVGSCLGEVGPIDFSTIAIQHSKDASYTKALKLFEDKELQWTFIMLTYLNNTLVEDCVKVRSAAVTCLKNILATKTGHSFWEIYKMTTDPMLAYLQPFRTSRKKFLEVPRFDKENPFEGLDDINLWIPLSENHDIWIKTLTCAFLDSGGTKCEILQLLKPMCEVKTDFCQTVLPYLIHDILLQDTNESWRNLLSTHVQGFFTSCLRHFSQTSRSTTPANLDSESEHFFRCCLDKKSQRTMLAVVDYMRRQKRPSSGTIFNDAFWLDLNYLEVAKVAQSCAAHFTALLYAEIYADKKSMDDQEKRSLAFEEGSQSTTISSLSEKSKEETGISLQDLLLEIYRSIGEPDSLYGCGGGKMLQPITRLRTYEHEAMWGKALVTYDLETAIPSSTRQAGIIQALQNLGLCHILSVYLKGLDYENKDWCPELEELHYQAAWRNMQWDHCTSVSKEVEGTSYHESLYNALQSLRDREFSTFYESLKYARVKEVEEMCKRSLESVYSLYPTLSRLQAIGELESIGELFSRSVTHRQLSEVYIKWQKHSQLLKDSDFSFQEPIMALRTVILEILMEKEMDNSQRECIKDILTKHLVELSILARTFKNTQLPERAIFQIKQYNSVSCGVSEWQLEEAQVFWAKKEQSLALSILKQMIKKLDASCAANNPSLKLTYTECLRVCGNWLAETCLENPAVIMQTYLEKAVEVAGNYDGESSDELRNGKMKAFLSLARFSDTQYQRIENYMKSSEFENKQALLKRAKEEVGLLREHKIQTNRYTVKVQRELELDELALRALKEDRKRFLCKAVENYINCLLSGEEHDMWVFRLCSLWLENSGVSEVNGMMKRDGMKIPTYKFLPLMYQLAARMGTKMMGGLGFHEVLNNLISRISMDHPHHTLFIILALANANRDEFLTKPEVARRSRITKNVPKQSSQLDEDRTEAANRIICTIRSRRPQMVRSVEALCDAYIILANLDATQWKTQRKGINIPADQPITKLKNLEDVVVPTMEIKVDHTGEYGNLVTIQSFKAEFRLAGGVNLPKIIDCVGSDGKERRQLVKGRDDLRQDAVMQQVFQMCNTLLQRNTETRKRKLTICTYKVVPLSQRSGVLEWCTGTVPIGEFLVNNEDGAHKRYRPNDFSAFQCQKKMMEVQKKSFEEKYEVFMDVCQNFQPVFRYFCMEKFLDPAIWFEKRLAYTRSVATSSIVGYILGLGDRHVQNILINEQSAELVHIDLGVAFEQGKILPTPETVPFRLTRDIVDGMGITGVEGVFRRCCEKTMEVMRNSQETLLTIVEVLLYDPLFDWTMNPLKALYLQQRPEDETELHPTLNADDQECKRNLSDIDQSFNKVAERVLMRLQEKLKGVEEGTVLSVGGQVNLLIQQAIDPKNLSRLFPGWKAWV

HCT-116 [18] = experiment: Induction of apoptosis in human HCT-116 cells assessed as late apoptotic cells at 2 uM measured after 2 days by AnnexinV-FITC/PI staining based analysis (reference value: 12.2%); type: functional; settings: time 2 day
[19] = Toxicity in BALB/c nude mouse assessed as drug tolerance at 20 to 40 mg/kg, po administered once daily for 3 days weekly after irinotecan post treatment for 21 days in presence of irinotecan; type: organism-based; settings: in vivo, 504 h, dose 20-40 mg/kg, time 21 day
HCT-116 [20] = experiment: Induction of apoptosis in human HCT-116 cells assessed as early apoptotic cells at 2 uM measured after 2 days by AnnexinV-FITC/PI staining based analysis (reference value: 14.4%); type: functional; settings: time 2 day
[21] = AUC (0 to t) in Balb/C mouse at 10 mg/kg,iv measured upto 48 hrs by LC-MS/MS analysis; type: ADME, organism-based; set-up: time < 48 hrs, dose 10 mg/kg, route iv; settings: in vivo
HCT-116 [22] = experiment: Induction of cell cycle arrest in human HCT-116 cells assessed as loss in accumulation of cells at G0/G1 phase at 1 to 4 uM measured after 48 hrs in presence of irinotecan by propidium iodide staining based flow cytometry analysis; type: functional; settings: dose 1-4 µM
HCT-116 [23] = experiment: Induction of apoptosis in human HCT-116 cells assessed as necrotic cells at 2 uM measured after 2 days in presence of irinotecan by AnnexinV-FITC/PI staining based analysis (reference value: 0.64%); type: functional; settings: time 2 day
MCF7 [24] = experiment: Antiproliferative activity against human MCF7 cells assessed as reduction in cell viability incubated for 6 days by MTT assay; type: functional, cell-based; settings: MCF7, 144 h
HCT-116 [25] = experiment: Induction of apoptosis in human HCT-116 cells assessed as late apoptotic cells at 1 uM measured after 2 days in presence of irinotecan by AnnexinV-FITC/PI staining based analysis (reference value: 12.2%); type: functional; settings: time 2 day
HCT-116 [26] = experiment: Induction of apoptosis in human HCT-116 cells assessed as early apoptotic cells at 2 uM measured after 2 days in presence of irinotecan by AnnexinV-FITC/PI staining based analysis (reference value: 14.4%); type: functional; settings: time 2 day
[27] = Clearance in Balb/C mouse at 10 mg/kg,po measured upto 48 hrs by LC-MS/MS analysis; type: ADME, organism-based; settings: in vivo
[28] = Clearance in Balb/C mouse at 10 mg/kg,iv measured upto 48 hrs by LC-MS/MS analysis; type: ADME, organism-based; settings: in vivo
HCT-116 [29] = experiment: Induction of apoptosis in human HCT-116 cells assessed as viable cells at 4 uM measured after 2 days by AnnexinV-FITC/PI staining based analysis (reference value: 72.8%); type: functional; settings: HCT-116, 48 h, time 2 day, read-out: Activity
HCT-116 [30] = experiment: Induction of apoptosis in human HCT-116 cells assessed as early apoptotic cells at 4 uM measured after 2 days in presence of irinotecan by AnnexinV-FITC/PI staining based analysis (reference value: 14.4%); type: functional; settings: time 2 day
[31] = Efflux ratio of apparent permeability in human Caco-2 cells; type: ADME, cell-based
[32] = Half life in Balb/C mouse at 10 mg/kg,iv measured upto 48 hrs by LC-MS/MS analysis; type: ADME, organism-based; settings: in vivo
[33] = Volume of distribution at steady state in Balb/C mouse at 10 mg/kg,po measured upto 48 hrs by LC-MS/MS analysis; type: ADME, organism-based; settings: in vivo
HCT-116 [34] = experiment: Induction of apoptosis in human HCT-116 cells assessed as viable cells at 1 uM measured after 2 days in presence of irinotecan by AnnexinV-FITC/PI staining based analysis (reference value: 72.8%); type: functional; settings: HCT-116, 48 h, time 2 day, read-out: Activity
SW-620 = experiment: Antitumor activity against human SW620 cells xenografted in BALB/c nude mouse model assessed as tumor growth inhibition at 20 mg/kg, po administered once daily for 3 days weekly after irinotecan post treatment for 21 days by caliper method relative to control; type: functional; settings: SW-620, 504 h, time 21 day, read-out: TGI

## CC(C)NC(=O)N(C)c1cnc2ccc(-c3ccc(OCCCN4CCCCC4)nc3)cc2n1
HCT-116 [1]
  Activity: 18.1%
HCT-116 [2]
  Activity: inactive
HCT-116 [3]
  Activity: Active
MCF7 [4]
  fold change (FC): 5.2
HCT-116 [5]
  Activity: 1.73%
[6]
  Vd: 5.93 L/kg
[7]
  Cmax: 6790 ng/mL
MCF7 [8]
  fold change (FC): 15
HCT-116 [9]
  fold change (FC): 750
[10]
  Cmax: 10200 ng/mL
HCT-116 [11]
  viability at 1 µM: 68%
HCT-116 [12]
  IC50: 1.69 nM
[13]
  CLH: 1.8 mL/min/g
HCT-116 [14]
  Activity: 0.6%
HCT-116 [15]
  Activity: Active
MCF7 [16]
  CI: <1
[17]
  IC50: 1.15 nM
HCT-116 [18]
  Activity: 14.2%
[19]
  Activity: Toxic
HCT-116 [20]
  Activity: 17.6%
[21]
  AUCt: 13027.01 ng·h/mL
HCT-116 [22]
  Activity: Active
HCT-116 [23]
  Activity: 1.67%
MCF7 [24]
  IC50: > 9000 nM
HCT-116 [25]
  Activity: 30.4%
HCT-116 [26]
  Activity: 51.3%
[27]
  CL/F: 12.2 mL/min/kg
[28]
  clearance: 13 mL/min/kg
HCT-116 [29]
  viability at 4 µM: 68.3%
HCT-116 [30]
  Activity: 55.7%
[31]
  efflux ratio: 2.37
[32]
  t1/2: 5.29 h
[33]
  Vdss: 3.52 L/kg
HCT-116 [34]
  viability at 1 µM: 17.3%
SW-620
  inhibition in vivo at 20 mg/kg: 77.2%
